These results are taken from patent US12509467B2 (Hoffmann-La Roche Inc., priority 2020, dated 2025).

Read-outs that look alike come from different tables or passages of the source.

The target in this experiment is T1, human cGAS (residues 161-522) (Homo sapiens, UniProt Q8N884).
T1 construct: Recombinantly expressed purified human cGAS (residues 161-522) was used at 25 nM; made in house
The experiment can be described thus: cGAS Activity Assay—Malachite Green. The format is biochemical. How it is done:
Compounds were tested for cGAS inhibition in a coupled enzymatic assay based on Phosphate detection by Malachite Green. Final assay conditions were 20 mM TRIS pH 7.5 (Applichem), 5 mM MgCl2 (Sigma) and 0.01% BSA (Sigma) supplemented with 80 μM ATP (Sigma), 80 μM GTP (Sigma) and 100 nM Interferon Stimulating DNA (ISD) (Microsynth).
1 μL of DMSO dilution series was transferred to 32.3 μL reaction buffer, mixed by pipetting up/down, spun for 1 minute at 3000 rpm and was visually inspected for precipitation. 5 μL of 3-fold enzyme stock solution were transferred to an empty 384-well Black/Clear Flat Bottom Polystyrene NBS (Corning) rows 3-24. Rows 1-2 were filled with assay buffer. Plates were spun 10 seconds at 1000 rpm (164×g). 5 μL of compound intermediate dilution was added and mixed by pipetting up/down to rows 3-24. Rows 1-2 were filled with 3.1% DMSO assay buffer. Plates were spun 10 seconds at 1000 rpm (164×g). 5 μL 3-fold Nucleotide/DNA mix was added to all wells to start the reaction. Plates were spun 10 seconds at 1000 rpm (164×g) and incubated for 4 hour at room temperature (RT) in the dark. 5 μL 4 U/mL PPase (Sigma) were added to all wells. Plates spun 10 seconds at 1000 rpm (164×g). 10 μL BioMol green Solution (Enzo Life Sciences) was added to all wells. Plates spun 10 seconds at 1000 rpm (164×g) and incubated 30 minutes at RT in the dark. Absorbance data was collected 620 nm on an EnVision Multilable Reader (Perkin Elmer) and the following measurement settings were used: excitation filter photometric was 620 nm; excitation from the top; measurement height was 1 mm; number of flashes was 30; number of flashes integrated was 1.
All plates are checked for abnormalities and outliers in the Blank Control (no protein, row 1) and the Neutral Control (no compound, row 2) are excluded using the 3*SD rule.
Table 5 provides IC50 values (μM) for cGAS inhibition obtained for particular examples of the present invention as measured by the above-described assay.

The mark [1] stands for this setting: cGAS inhibition, 25 nM cGAS, 80 μM ATP, 80 μM GTP, 100 nM ISD, 4 hour at RT, Malachite Green phosphate detection, read-out: IC50 cGAS.

T1 sequence (Q8N884 161-522): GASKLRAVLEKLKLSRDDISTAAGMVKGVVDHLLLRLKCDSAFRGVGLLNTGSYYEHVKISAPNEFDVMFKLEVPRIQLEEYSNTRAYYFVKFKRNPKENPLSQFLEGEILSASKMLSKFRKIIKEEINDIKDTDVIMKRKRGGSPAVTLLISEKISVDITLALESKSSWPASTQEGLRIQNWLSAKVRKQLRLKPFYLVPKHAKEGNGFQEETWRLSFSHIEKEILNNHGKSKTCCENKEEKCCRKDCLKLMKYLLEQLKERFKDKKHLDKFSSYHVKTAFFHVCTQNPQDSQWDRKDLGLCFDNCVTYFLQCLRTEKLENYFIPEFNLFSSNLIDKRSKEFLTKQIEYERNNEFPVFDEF

For orientation: IC50 means the concentration that gives 50% inhibition. Regarding `O=c1cc(Cc2ccccc2)[nH]c2nc(NCc3cc(-c4ccncc4)ccc3Cl)nn12` [Example 31, 5-benzyl-2-[[2-chloro-5-(4-pyridyl)phenyl]methylamino]-4H-[1,2,4]triazolo[1,5-a]-pyrimidin-7-one], the half-maximal inhibitory concentration (IC50) under setting [1] turned out to be 78 nM.

For `CCCc1cc(=O)n2nc(NCc3ccc(Cl)cc3C)nc2[nH]1` [Example 66, 2-[(4-chloro-2-methylphenyl)-methylamino]-5-propyl-4H-[1,2,4]triazolo[1,5-a]pyrimidin-7-one], the concentration for half-maximal inhibition (IC50) under setting [1] came out at 9280 nM.

For the molecule `CCCc1cc(=O)n2nc(NCc3cc(-c4cccnc4)ccc3Cl)nc2[nH]1` [Example 21, 2-[[2-chloro-5-(3-pyridyl)phen-yl]-methylamino]-5-propyl-4H-[1,2,4]triazolo[1,5-a]pyrimidin-7-one], the IC50 is 744 nM.

Regarding `CCCc1cc(=O)n2nc(NCc3cccc(-c4ccn(C)n4)c3)nc2[nH]1` [Example 13, 2-[[3-(1-methylpyrazol-3-yl)-phenyl]methylamino]-5-propyl-4H-[1,2,4]triazolo[1,5-a]-pyrimidin-7-one], the half-inhibitory concentration (IC50) is 1940 nM.

As to `CCCc1cc(=O)n2nc(NCc3cc(N4CC(OC)C4)ncc3Cl)nc2[nH]1` [Example 93, 2-[[5-Chloro-2-(3-methoxyazetidin-1-yl)-4-pyridyl]methylamino]-5-propyl-4H-[1,2,4]triazolo[1,5-a]pyrimidin-7-one], the IC50 under setting [1] turned out to be 650 nM.

Turning to `CCCc1cc(=O)n2nc(NCc3ccc(-n4ccnc4)cc3)nc2[nH]1` [Example 9, 2-[(4-imidazol-1-ylphenyl)meth-ylamino]-5-propyl-4H-[1,2,4]-triazolo[1,5-a]pyrimidin-7-one], under setting [1], the half-inhibitory concentration (IC50) came to 4010 nM.

`CCCc1cc(=O)n2nc(NCc3cc(-c4ccccc4)ccc3Cl)nc2[nH]1` [Example 23, 2-[(2-chloro-5-phenylphenyl)-methylamino]-5-propyl-4H-[1,2,4]triazolo[1,5-a]pyrimidin-7-one]: the IC50 under setting [1] came to 2440 nM.

Molecule `CC(C)c1cc(=O)n2nc(NCc3ccc(Cl)cc3Cl)nc2[nH]1` [Example 61, 2-[(2,4-dichlorophenyl)methyl-amino]-5-isopropyl-4H-[1,2,4]-triazolo[1,5-a]pyrimidin-7-one] registered a 50% inhibitory concentration (IC50) of 2740 nM.

On to `Cn1ccc(-c2ccc(Cl)c(CNc3nc4[nH]c(Cc5ccccc5)cc(=O)n4n3)c2)n1` [Example 27], for which, under setting [1], the half-maximal inhibitory concentration (IC50) stood at 178 nM.

With `CCCc1cc(=O)n2nc(NCc3cc(-c4ccn(C)n4)ccc3C(F)(F)F)nc2[nH]1` [Example 81, 2-[[5-(1-Methylpyrazol-3-yl)-2-(trifluoromethyl)phenyl]methylamino]-5-propyl-4H-[1,2,4]-triazolo[1,5-a]pyrimidin-7-one], the half-maximal inhibitory concentration (IC50) under setting [1] amounted to 1690 nM.

`Cn1ccc(-c2ccc(Cl)c(CNc3nc4[nH]c(CCc5ccccc5)cc(=O)n4n3)c2)n1` [Example 26, 2-[[2-chloro-5-(1-methylpyrazol-3-yl)phenyl]methylamino]-5-(2-phenylethyl)-4H-[1,2,4]-triazolo[1,5-a]pyrimidin-7-one]: the IC50 amounted to 1600 nM.

In the case of `CCCc1cc(=O)n2nc(NCc3ccc(OCc4ccccc4)cc3)nc2[nH]1` [Example 17, 2-[(4-benzyloxyphenyl)methyl-amino]-5-propyl-4H-[1,2,4]-triazolo[1,5-a]pyrimidin-7-one], the IC50 was determined as 4080 nM.

With `CCCc1cc(=O)n2nc(NC(C)c3ccc(Cl)cc3Cl)nc2[nH]1` (stereo not shown) [Example 76, 2-[1-(2,4-dichlorophenyl)ethyl-amino]-5-propyl-4H-[1,2,4]-triazolo[1,5-a]pyrimidin-7-one], the half-inhibitory concentration (IC50) under setting [1] was 6720 nM.

Molecule `CCCc1cc(=O)n2nc(NCc3ccc(OCC)cc3Cl)nc2[nH]1` [Example 11] registered a half-maximal inhibitory concentration (IC50) of 1340 nM.

Consider `CCCc1cc(=O)n2nc(NCc3ccc(OC)cc3Cl)nc2[nH]1` [Example 69, 2-[(2-chloro-4-methoxyphen-yl)methylamino]-5-propyl-4H-[1,2,4]triazolo[1,5-a]pyrimidin-7-one], for which the IC50 under setting [1] came out at 9510 nM.

Molecule `CCCc1cc(=O)n2nc(NCc3cc(-c4ccn(C)n4)ccc3C)nc2[nH]1` [Example 83, 2-[[2-methyl-5-(1-methyl-pyrazol-3-yl)phenyl]methyl-amino]-5-propyl-4H-[1,2,4]-triazolo[1,5-a]pyrimidin-7-one] registered a concentration for half-maximal inhibition (IC50) of 1240 nM.

For the molecule `CC(Nc1nc2[nH]c(C(F)(F)F)cc(=O)n2n1)c1ccc(Cl)cc1Cl` (stereo not shown) [Example 77, 2-[1-(2,4-dichlorophenyl)ethyl-amino]-5-(trifluoromethyl)-4H-[1,2,4]triazolo[1,5-a]pyrimidin-7-one], half-maximal inhibition (IC50) was put at 8410 nM.

Consider `CCCc1cc(=O)n2nc(NCc3cc(-n4cnc(C)c4)ccc3Cl)nc2[nH]1` [Example 88, 2-[[2-Chloro-5-(4-methylimidazol-1-yl)phenyl]methylamino]-5-propyl-4H-[1,24]triazolo[1,5-a]pyrimidin-7-one], for which, under setting [1], the IC50 stood at 484 nM.

Regarding `CCCc1cc(=O)n2nc(NCc3cc(-n4cncc4C)ccc3Cl)nc2[nH]1` [Example 87, 2-[[2-chloro-5-(5-methylimidazol-1-yl)phenyl]methylamino]-5-propyl-4H-[1,2,4]triazolo[1,5-a]pyrimidin-7-one], it took 640 nM to reach half-maximal inhibition (IC50).

Turning to `O=c1cc(Cc2ccccc2)[nH]c2nc(NCc3ccc(Cl)cc3Cl)nn12` [Example 71, 5-benzyl-2-[(2,4-dichlorophen-yl)methylamino]-4H-[1,2,4]-triazolo[1,5-a]pyrimidin-7-one], the half-inhibitory concentration (IC50) under setting [1] was 1760 nM.

On to `CCCc1cc(=O)n2nc(NCc3ccc(N4CCOCC4)cc3)nc2[nH]1` [Example 42, 2-[(4-morpholinophenyl)meth-amino]-5-propyl-4H-[1,2,4]-triazolo[1,5-a]pyrimidin-7-one], for which, under setting [1], the IC50 was 2130 nM.

For the molecule `Cn1ccc(-c2ccc(Cl)c(CNc3nc4[nH]c(CCCC(F)F)cc(=O)n4n3)c2)n1` [Example 50, 2-[[2-chloro-5-(1-methylpyrazol-3-yl)phenyl]methylamino]-5-(4,4-difluorobutyl)-4H-[1,2,4]-triazolo[1,5-a]pyrimidin-7-one], the concentration for half-maximal inhibition (IC50) under setting [1] amounted to 263 nM.

For `CCCc1cc(=O)n2nc(NCc3ccc(-c4ccccc4)cc3)nc2[nH]1` [Example 67, 2-[(4-phenylphenyl)methyl-amino]-5-propyl-4H-[1,2,4]-triazolo[1,5-a]pyrimidin-7-one], under setting [1], the half-inhibitory concentration (IC50) came to 672 nM.

As for `CCCc1cc(=O)n2nc(NCc3cc(-c4ccn(C)n4)ccc3F)nc2[nH]1` [Example 12, 2-[[2-fluoro-5-(1-methylpyrazol-3-yl)phenyl]methylamino]-5-propyl-4H-[1,2,4]triazolo[1,5-a]pyrimidin-7-one], the IC50 under setting [1] stood at 602 nM.

Turning to `CCCc1cc(=O)n2nc(NCc3ccc(OC)cc3C)nc2[nH]1` [Example 70, 2-[(4-methoxy-2-methylphen-yl)methylamino]-5-propyl-4H-[1,2,4]triazolo[1,5-a]pyrimidin-7-one], under setting [1], the half-inhibitory concentration (IC50) turned out to be 3640 nM.

Turning to `CCCc1cc(=O)n2nc(NCc3cc(N4CCN(C)CC4)ncc3Cl)nc2[nH]1` [Example 95, 2-[[5-chloro-2-(4-methyl-piperazin-1-yl)-4-pyridyl]-methylamino]-5-propyl-4H-[1,2,4]triazolo[1,5-a]pyrim-idin-7-one], the IC50 under setting [1] was 6670 nM.

As for `CCCc1cc(=O)n2nc(NCc3cc(-c4cnn(C)c4)ccc3Cl)nc2[nH]1` [Example 24, 2-[[2-chloro-5-(1-methylpyrazol-4-yl)phenyl]methylamino]-5-propyl-4H-[1,2,4]triazolo[1,5-a]pyrimidin-7-one], the IC50 under setting [1] stood at 401 nM.

`CC(C)Cc1cc(=O)n2nc(NCc3ccc(Cl)cc3Cl)nc2[nH]1` [Example 64, 2-[(2,4-dichlorophenyl)methyl-amino]-5-isobutyl-4H-[1,2,4]-triazolo[1,5-a]pyrimidin-7-one]: half-maximal inhibition (IC50) was put at 3330 nM.

Molecule `CCCCc1cc(=O)n2nc(NCc3ccc(Cl)cc3Cl)nc2[nH]1` [Example 35, 5-butyl-2-[(2,4-dichlorophen-yl)methylamino]-4H-[1,2,4]-triazolo-[1,5-a]pyrimidin-7-one] registered a concentration for half-maximal inhibition (IC50) of 1320 nM.

For the molecule `O=c1cc(CC(F)(F)F)[nH]c2nc(NCc3ccc(Cl)cc3Cl)nn12` [Example 68, 2-[(2,4-dichlorophenyl)meth-ylamino]-5-(2,2,2-trifluoro-ethyl)-4H-[1,2,4]triazolo[1,5-a]pyrimidin-7-one], the 50% inhibitory concentration (IC50) under setting [1] was determined as 4440 nM.

On to `CCCCc1cc(=O)n2nc(NCc3cc(-c4ccccc4)on3)nc2[nH]1` [Example 46, 5-butyl-2-[(5-phenylisoxazol-3-yl)methylamino]-4H-[1,2,4]-triazolo[1,5-a]pyrimidin-7-one-5-butyl-2-[(5-phenylisoxazol-3-yl)methylamino]-4H-[1,2,4]-triazolo[1,5-a]pyrimidin-7-one], for which, under setting [1], the IC50 stood at 805 nM.
